Legend:
GLP-1R = GLP-1R (Homo sapiens, UniProt P43220); test: GLP-1R activation: cAMP increase in CHO cells stably expressing GLP-1R; type: cell-based; details: cAMP increase, CHO cells stably expressing GLP-1R, 10 point dose response, 30 minutes incubation; read-out: EC50
[1] = Microsomal stability, human liver microsomes (predicted hepatic clearance); details: predicted from in vitro microsomal stability data

GLP-1R, sequence (P43220 24-463): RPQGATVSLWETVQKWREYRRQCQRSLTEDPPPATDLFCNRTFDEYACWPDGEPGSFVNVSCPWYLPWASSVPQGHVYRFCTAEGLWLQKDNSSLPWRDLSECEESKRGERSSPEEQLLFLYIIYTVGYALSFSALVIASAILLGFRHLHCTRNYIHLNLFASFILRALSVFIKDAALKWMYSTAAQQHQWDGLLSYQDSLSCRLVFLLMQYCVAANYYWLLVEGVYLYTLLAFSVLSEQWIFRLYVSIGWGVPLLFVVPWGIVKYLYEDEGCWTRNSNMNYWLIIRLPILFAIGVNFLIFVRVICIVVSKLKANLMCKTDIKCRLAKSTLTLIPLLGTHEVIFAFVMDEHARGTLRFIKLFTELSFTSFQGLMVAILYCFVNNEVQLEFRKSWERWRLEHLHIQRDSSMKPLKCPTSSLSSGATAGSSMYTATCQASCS

Row | Structure (SMILES) | EC50 (GLP-1R) [nM] | Predicted Hepatic Clearance (Pred. Cl.) [1] [mL/min/kg]
1 | CN1C[C@@](C)(Cn2c(Cc3cc(F)c(-c4cccc(OCc5ccc(C#N)cc5F)n4)cc3F)nc3ccc(C(=O)O)cc32)C1=O (racemic) [Example 272, 2-(4-(6-((4-cyano-2-fluorobenzyl)oxy)pyridin-2-yl)-2,5-difluorobenzyl)-1-((1,3-dimethyl-2-oxoazetidin-3-yl)methyl)-1H-benzo[d]imidazole-6-carboxylic acid] | 1.66 | 9.67
2 | CC(C#N)Cn1c(Cc2cc(F)c(-c3cccc(OCc4ccc(C#N)cc4F)n3)cc2F)nc2ccc(C(=O)O)cc21 (racemic) [Example 306, 2-(4-(6-((4-cyano-2-fluorobenzyl)oxy)pyridin-2-yl)-2,5-difluorobenzyl)-1-(2-cyanopropyl)-1H-benzo[d]imidazole-6-carboxylic acid] | 1.86 | 6
3 | COCCn1c([C@@H](C)c2ccc(-c3cccc(OCc4ccc(C#N)cc4F)n3)cc2)nc2ccc(C(=O)O)cc21 (racemic) [Example 447, 2-(1-(4-(6-((4-cyano-2-fluorobenzyl)oxy)pyridin-2-yl)phenyl)ethyl)-1-(2-methoxyethyl)-1H-benzo[d]imidazole-6-carboxylic acid] | 1100 | 5
4 | N#Cc1ccc(COc2cccc(-c3ccc(Cc4nc5ccc(C(=O)O)cc5n4C[C@H]4CCS4(=O)=O)cc3)n2)c(F)c1 (racemic) [Example 475, 2-(4-(6-((4-cyano-2-fluorobenzyl)oxy)pyridin-2-yl)benzyl)-1-((1,1-dioxidothietan-2-yl)methyl)-1H-benzo[d]imidazole-6-carboxylic acid] | 325 | 2
5 | C[C@@]1(Cn2c(Cc3cc(F)c(-c4cccc(OCc5ccc(C#N)cc5F)n4)cc3F)nc3ccc(C(=O)O)cc32)CCCO1 (racemic) [Example 548, 2-(4-(6-((4-cyano-2-fluorobenzyl)oxy)pyridin-2-yl)-2,5-difluorobenzyl)-1-((2-methyltetrahydrofuran-2-yl)methyl)-1H-benzo[d]imidazole-carboxylic acid] | 9.01 | 7.5
6 | CC1(C)CC[C@@H](Cn2c(Cc3cc(F)c(-c4cccc(OCc5ccc(C#N)cc5F)n4)cc3F)nc3ccc(C(=O)O)cc32)O1 (racemic) [Example 549, 2-(4-(6-((4-cyano-2-fluorobenzyl)oxy)pyridin-2-yl)-2,5-difluorobenzyl)-1-((5,5-dimethyltetrahydrofuran-2-yl)methyl)-1H-benzo[d]imidazole-6-carboxylic acid] | 45.5 | 12
7 | N#Cc1ccc(COc2cccc(-c3cc(F)c(Cc4nc5ccc(C(=O)O)cc5n4C[C@@H]4CC(F)(F)CO4)cc3F)n2)c(F)c1 (racemic) [Example 573, 2-(4-(6-((4-cyano-2-fluorobenzyl)oxy)pyridin-2-yl)-2,5-difluorobenzyl)-1-((4,4-difluorotetrahydrofuran-2-yl)methyl)-1H-benzo[d]imidazole-6-carboxylic acid] | 0.89 | 6.5
8 | COCCn1c(Cc2ccc(-c3cccc(OCc4ccc(C#N)cc4F)n3)cc2F)nc2ccc(C(O)CO)cc21 (racemic) [Example 582] | 3460 | 15.2
9 | COCCn1c(Cc2ccc(-c3nc(OCc4ccc(C#N)cc4F)ccc3C)cc2)nc2ccc(C(=O)O)cc21 (single isomer, unassigned) [Example 23, 2-(4-(6-((4-cyano-2-fluorobenzyl)oxy)-3-methylpyridin-2-yl)benzyl)-1-(2-methoxyethyl)-1H-benzo[d]imidazole-6-carboxylic acid] | 1100 | 13.8
10 | COCCn1c(Cc2ccc(-c3ccc(C)c(OCc4ccc(C#N)cc4F)n3)cc2)nc2ccc(C(=O)O)cc21 (single isomer, unassigned) [Example 24, 2-(4-(6-((4-cyano-2-fluorobenzyl)oxy)-5-methylpyridin-2-yl)benzyl)-1-(2-methoxyethyl)-1H-benzo[d]imidazole-6-carboxylic acid] | 1720 | 2.17
11 | COCCn1c(C2CCc3cc(-c4cccc(OCc5ccc(C#N)cc5F)n4)ccc32)nc2ccc(C(=O)O)cc21 (single isomer, unassigned) [Example 46, 2-(5-(6-((4-cyano-2-fluorobenzyl)oxy)pyridin-2-yl)-2,3-dihydro-1H-inden-1-yl)-1-(2-methoxyethyl)-1H-benzo[d]imidazole-6-carboxylic acid] | 62.4 | 5
12 | COCCn1c(C2CCc3cc(-c4cccc(OCc5ccc(C#N)cc5F)n4)ccc32)nc2ccc(C(=O)O)cc21 (single isomer, unassigned) [Example 47, 2-(5-(6-((4-cyano-2-fluorobenzyl)oxy)pyridin-2-yl)-2,3-dihydro-1H-inden-1-yl)-1-(2-methoxyethyl)-1H-benzo[d]imidazole-6-carboxylic acid] | 1440 | 4.67
13 | COCCn1c(C2OCCc3cc(-c4cccc(OCc5ccc(C#N)cc5F)n4)ccc32)nc2ccc(C(=O)O)cc21 (single isomer, unassigned) [Example 48, 2-(6-(6-((4-cyano-2-fluorobenzyl)oxy)pyridin-2-yl)isochroman-1-yl)-1-(2-methoxyethyl)-1H-benzo[d]imidazole-6-carboxylic acid] | 575 | 3.67
14 | COCCn1c(Cc2ccc(-c3cccc(OCc4ccc(C#N)cc4F)n3)c(NC(C)=O)c2)nc2ccc(C(=O)O)cc21 [Example 253, 2-(3-acetamido-4-(6-((4-cyano-2-fluorobenzyl)oxy)pyridin-2-yl)benzyl)-1-(2-methoxyethyl)-1H-benzo[d]imidazole-6-carboxylic acid] |  | 14
15 | COCCn1c(Cn2cc(-c3cccc(OCc4ccc(C#N)cc4F)n3)cn2)nc2ccc(C(=O)O)cc21 [Example 282, 2-((4-(6-((4-cyano-2-fluorobenzyl)oxy)pyridin-2-yl)-1H-pyrazol-1-yl)methyl)-1-(2-methoxyethyl)-1H-benzo[d]imidazole-6-carboxylic acid] |  | 8.17
16 | COCCn1c(Cc2ccc(-c3cccc(OCc4ccc5cn[nH]c5c4)n3)cc2F)nc2ccc(C(=O)O)cc21 [Example 463, 2-(4-(6-((1H-indazol-6-yl)methoxy)pyridin-2-yl)-2-fluorobenzyl)-1-(2-methoxyethyl)-1H-benzo[d]imidazole-6-carboxylic acid] |  | 2.33
17 | CC(=O)N1CCC[C@H]1Cn1c(Cc2ccc(-c3ccc(F)c(OCc4ccc(Cl)cc4F)c3)cc2F)nc2ccc(C(=O)O)cc21 [Example 464, (S)-1-((1-acetylpyrrolidin-2-yl)methyl)-2-((3′-((4-chloro-2-fluorobenzyl)oxy)-3,4′-difluoro-[1,1′-biphenyl]-4-yl)methyl)-1H-benzo[d]imidazole-6-carboxylic acid] |  | 4
18 | COCCn1c(Cc2ccc(-c3cccc(OCc4cccc5cc[nH]c45)n3)cc2F)nc2ccc(C(=O)O)cc21 [Example 479, 2-(4-(6-((1H-indol-7-yl)methoxy)pyridin-2-yl)-2-fluorobenzyl)-1-(2-methoxyethyl)-1H-benzo[d]imidazole-6-carboxylic acid] |  | 9.33
19 | CC(=O)N1CCC[C@H]1Cn1c(Cc2ccc(-c3ccc(F)c(OCc4ccc(Cl)cc4F)c3)cc2F)nc2ccc(C(=O)O)cc21 [Example 482, 3-[[(2S)-1-acetylpyrrolidin-2-yl]methyl]-2-[[4-[3-[(4-chloro-2-fluoro-phenyl)methoxy]-4-fluoro-phenyl]-2-fluoro-phenyl]methyl]benzimidazole-5-carboxylic acid] |  | 4.83
20 | COCCn1c(Cc2ccc(-c3cccc(OCc4ccccc4N)n3)cc2F)nc2ccc(C(=O)O)cc21 [Example 498, 2-(4-(6-((2-aminobenzyl)oxy)pyridin-2-yl)-2-fluorobenzyl)-1-(2-methoxyethyl)-1H-benzo[d]imidazole-6-carboxylic acid] |  | <1.83
21 | COCCn1c(Cc2ccc(-c3cccc(OCn4ccc(C(=O)O)cc4=O)n3)cc2F)nc2ccc(C(=O)O)cc21 [Example 503, 2-(4-(6-((4-carboxy-2-oxopyridin-1(2H)-yl)methoxy)pyridin-2-yl)-2-fluorobenzyl)-1-(2-methoxyethyl)-1H-benzo[d]imidazole-6-carboxylic acid] |  | <1.83
22 | COCCn1c(Cc2ccc(-c3cccc(OCc4ccccc4S(C)(=O)=O)n3)cc2F)nc2ccc(C(=O)O)cc21 [Example 510, 2-(2-fluoro-4-(6-((2-(methylsulfonyl)benzyl)oxy)pyridin-2-yl)benzyl)-1-(2-methoxyethyl)-1H-benzo[d]imidazole-6-carboxylic acid] |  | 14.5
23 | CCOP(=O)(OCC)c1ccc2nc(Cc3ccc(-c4cccc(OCc5ccc(C#N)cc5F)n4)cc3F)n(CCOC)c2c1 [Example 556, Diethyl (2-(4-(6-((4-cyano-2-fluorobenzyl)oxy)pyridin-2-yl)-2-fluorobenzyl)-1-(2-methoxyethyl)-1H-benzo[d]imidazol-6-yl)phosphonate] |  | 19.5
24 | COCCn1c(Cc2ccc(-c3cccc(OCc4ccc(C(F)(F)F)nc4N)n3)cc2F)nc2ccc(C(=O)O)cc21 [Example 595, 2-(4-(6-((2-amino-6-(trifluoromethyl)pyridin-3-yl)methoxy)pyridin-2-yl)-2-fluorobenzyl)-1-(2-methoxyethyl)-1H-benzo[d]imidazole-6-carboxylic acid] |  | 6.17
25 | COCCn1c(Cc2cc(F)c(-c3ccc(F)c(OCc4cc(F)c(C#N)cc4F)n3)cc2F)nc2c(F)cc(C(=O)O)cc21 [Example 763] |  | 1.83

From US11702404B2, “GLP-1R modulating compounds” (priority 2019, dated 2023)
